Source: article PMC11211886 (Frontiers in Pharmacology, 2024)

How the values were obtained:
[1] = Caco-2 bidirectional transport permeability; type: in vitro ADME, human; settings: human
Description: The passage number of cells used in this study was 39. Non-specific binding to the device surfaces and the aqueous solubility of test compounds were tested before the transport experiment. […] The integrity of the monolayer was estimated by measuring transepithelial electrical resistance (TEER). Only the monolayers with TEER over 150 Ω were used for the studies.

BCRP = target: T1, BCRP (Homo sapiens, UniProt Q9UNQ0); test: in vitro; settings: Caco-2
T1 sequence (Q9UNQ0 1-655): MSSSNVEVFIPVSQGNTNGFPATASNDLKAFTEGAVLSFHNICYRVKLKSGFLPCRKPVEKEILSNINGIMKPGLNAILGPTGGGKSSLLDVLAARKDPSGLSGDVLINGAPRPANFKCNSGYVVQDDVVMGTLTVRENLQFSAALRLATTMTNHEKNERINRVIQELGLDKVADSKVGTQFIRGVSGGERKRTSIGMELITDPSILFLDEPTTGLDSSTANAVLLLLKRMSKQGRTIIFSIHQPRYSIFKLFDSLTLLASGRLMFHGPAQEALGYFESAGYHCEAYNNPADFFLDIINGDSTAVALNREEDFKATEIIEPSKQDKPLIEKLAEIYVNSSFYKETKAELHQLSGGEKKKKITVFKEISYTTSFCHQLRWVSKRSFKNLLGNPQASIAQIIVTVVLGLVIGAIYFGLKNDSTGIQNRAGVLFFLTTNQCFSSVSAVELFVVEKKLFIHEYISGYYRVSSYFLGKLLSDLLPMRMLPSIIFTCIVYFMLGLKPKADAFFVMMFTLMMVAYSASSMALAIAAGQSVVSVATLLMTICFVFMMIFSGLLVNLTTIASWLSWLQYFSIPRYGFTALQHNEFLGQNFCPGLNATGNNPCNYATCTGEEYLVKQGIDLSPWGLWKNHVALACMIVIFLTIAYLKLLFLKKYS
Excerpt: The experimental conditions were similar to those of the permeability study.

OATP1B1 = target: T2, OATP1B1 (Homo sapiens, UniProt Q9Y6L6); test: OATP1B1 inhibition, β-estradiol 17-(β-D-glucuronide) uptake in transfected HEK293 cells
T2 sequence (Q9Y6L6 1-691): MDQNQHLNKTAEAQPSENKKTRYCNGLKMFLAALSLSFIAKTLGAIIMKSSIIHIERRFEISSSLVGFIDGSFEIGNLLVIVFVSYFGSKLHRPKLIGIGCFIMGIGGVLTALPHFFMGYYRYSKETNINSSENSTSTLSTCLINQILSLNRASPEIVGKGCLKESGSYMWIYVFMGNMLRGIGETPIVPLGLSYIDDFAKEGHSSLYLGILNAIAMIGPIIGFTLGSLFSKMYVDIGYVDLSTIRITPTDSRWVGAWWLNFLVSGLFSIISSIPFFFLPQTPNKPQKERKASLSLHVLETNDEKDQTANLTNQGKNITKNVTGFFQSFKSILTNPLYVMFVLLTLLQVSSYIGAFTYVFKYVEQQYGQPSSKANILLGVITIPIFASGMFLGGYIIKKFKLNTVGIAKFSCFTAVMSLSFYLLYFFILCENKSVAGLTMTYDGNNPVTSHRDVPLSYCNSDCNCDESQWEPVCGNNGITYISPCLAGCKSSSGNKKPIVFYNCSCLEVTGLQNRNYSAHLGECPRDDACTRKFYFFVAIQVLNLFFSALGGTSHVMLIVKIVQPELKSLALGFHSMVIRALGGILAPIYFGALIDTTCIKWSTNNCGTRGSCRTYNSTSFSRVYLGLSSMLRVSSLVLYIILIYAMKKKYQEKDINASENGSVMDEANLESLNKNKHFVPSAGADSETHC
Description: (§1) The pre-incubation solutions were removed, and incubation solutions containing the inhibitors and probe substrates (or transport buffer containing an equal volume of vehicle control and probe substrates) were added and incubated at 37°C for 2 min (5 min for OATP1B3). The probe substrate for OAT1 was 4-aminohippuric acid (10 μM), for OAT3 was estrone 3-sulfate (10 μM), for OCT2 was metformin (100 μM), for OATP1B1 was β-estradiol 17-(β-D-glucuronide) (5 μM), for OATP1B3 was β-estradiol 17-(β-D-glucuronide) (10 μM), and for MATE1 and MATE2-K was tetraethylammonium (10 μM). After incubation, cells were washed three times with ice-cold transport buffer (25 mM HEPES, pH 7.4, pH 8.0 for overexpressing MATE1 and MATE2-K HEK293 cells) and lysed in distilled water. The concentrations of probe substrates were determined by LC-MS/MS, and a BCA Kit (Solarbio ®Life Sciences, Beijing, China) was used to determine the protein content in the cell lysate.
(§2) where C is the concentration of the drug in the cell lysate (nM), P is the protein concentration of the cell lysate (mg/mL), and T is the incubation time (minute). Uptake ratetest compound is the uptake rate of the substrate in the presence of the test compound. Uptake ratevehicle control is the uptake rate of the substrate in the presence of the vehicle control. Uptake ratepassive is the uptake rate of the substrate in the presence of the positive inhibitor at the top test concentration.

OATP1B3 = target: T3, OATP1B3 (Homo sapiens, UniProt Q9NPD5); test: OATP1B3 inhibition, β-estradiol 17-(β-D-glucuronide) uptake in transfected HEK293 cells
T3 sequence (Q9NPD5 1-702): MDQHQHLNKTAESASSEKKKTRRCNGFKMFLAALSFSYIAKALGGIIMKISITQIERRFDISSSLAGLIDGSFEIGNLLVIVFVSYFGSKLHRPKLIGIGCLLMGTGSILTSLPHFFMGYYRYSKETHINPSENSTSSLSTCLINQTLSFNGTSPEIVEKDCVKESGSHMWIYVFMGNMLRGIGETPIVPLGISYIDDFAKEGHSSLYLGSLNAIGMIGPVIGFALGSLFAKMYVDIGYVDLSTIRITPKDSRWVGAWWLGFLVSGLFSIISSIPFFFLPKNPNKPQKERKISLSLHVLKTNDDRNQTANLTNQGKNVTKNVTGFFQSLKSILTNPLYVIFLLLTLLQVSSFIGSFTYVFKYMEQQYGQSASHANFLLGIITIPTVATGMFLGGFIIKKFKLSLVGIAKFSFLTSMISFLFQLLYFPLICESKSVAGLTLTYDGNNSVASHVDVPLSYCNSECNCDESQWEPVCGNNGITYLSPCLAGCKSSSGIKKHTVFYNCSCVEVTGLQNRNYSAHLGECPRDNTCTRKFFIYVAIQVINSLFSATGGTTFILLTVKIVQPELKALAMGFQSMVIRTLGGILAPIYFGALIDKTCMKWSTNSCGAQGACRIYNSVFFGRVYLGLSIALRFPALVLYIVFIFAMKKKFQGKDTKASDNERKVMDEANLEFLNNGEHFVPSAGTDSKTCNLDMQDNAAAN
Description: as §1, §2

CYP2B6 mRNA = test: CYP induction in human hepatocytes, CYP2B6 mRNA (RT-PCR); settings: human five, Gene expression Fold Induction, CYP2B6, donor seven, 1000 µM
Description: […] […] […] Enzyme activity for each CYP isoform was reported as a fold change over vehicle control and the percent of positive control (detailed calculation in Supplementary 1.1). Hepatocytes were harvested with a lysis buffer from RNeasy 96 Kit (Qiagen Inc., Germantown, MD, USA) to isolate RNA, which was analyzed by real-time quantitative polymerase chain reaction (RT-PCR). […] Emax (the maximal observed induction) and EC50 (the concentration that supports half-maximal induction) were estimated by non-linear regression of fold increase in CYP mRNA expression versus concentration plots.
% of positive control = [(fold change in treated sample)-1] / [(fold change in positive control)-1] × 100
Based on the gene expression, a minimum of 4-fold increase of positive control compared to vehicle control, a minimum of 2-fold increase of the test article compared vehicle control and increased in a concentration-dependent manner was considered as the cutoff for a positive signal in in vitro induction assay.

In the case of `COCCc1ccc(OCC(O)CNC(C)C)cc1` (stereo not shown) [Metoprolol, reference compound], the Papp A→B at 60 min, 10 µM [1] is reported as 39.4 ×10⁻⁶ cm/s, the Papp B→A at 60 min, 10 µM [1] is reported as 36.8 ×10⁻⁶ cm/s and the efflux ratio at 60 min, 10 µM [1] is reported as 0.935.

In the case of `C[C@]12CC[C@@H]3c4ccc(OS(=O)(=O)O)cc4CC[C@H]3[C@@H]1CCC2=O` [E3S, Estrone-3-sulfate, reference compound], the “Papp A-B of E3S” value (BCRP) is reported as 2.79 ×10–^6 cm/s and the “Papp B-A of E3S” value (BCRP) is reported as 77.8 ×10–^6 cm/s.

Work on `CO[C@H]1/C=C/O[C@@]2(C)Oc3c(C)c(O)c4c(O)c(c(/C=N/N5CCN(C)CC5)c(O)c4c3C2=O)NC(=O)/C(C)=C\C=C\[C@H](C)[C@H](O)[C@@H](C)[C@@H](O)[C@@H](C)[C@H](OC(C)=O)[C@@H]1C` [Rifampicin, reference compound] yielded an IC50 (OATP1B1) of 866 nM, a Percentage transported (OATP1B1; human, 2 min, 10 μM, pH 7.4) of 0.00% and an Uptake rate (OATP1B1; human, 2 min, 10 μM, pH 7.4) of 3.03±0.536 pmol/mg protein/min. It also gave an IC50 (OATP1B3) of 611 nM, a Percentage transported (OATP1B3; human, 5 min, 10 μM, pH 7.4) of 0.00% and an Uptake rate (OATP1B3; human, 5 min, 10 μM, pH 7.4) of 4.46±0.829 pmol/mg protein/min. It also gave an inhibition at 5 min, 10 µM (OATP1B3; human, pH 7.4) of 100%.

With `CCC1(c2ccccc2)C(=O)NC(=O)NC1=O` [Phenobarbital] the fold induction at 48 h, 1000 µM (CYP2B6 mRNA) was 9.45.
